Several values for one entry are separate records, joined by “and”; a condition that tells them apart may be missing. Equal entries are not always repeated.
Experiments:
DNA Ligase IV/XRCC4 = biological target: T1, DNA Ligase IV/XRCC4 (Homo sapiens, UniProt P49917); experiment: Inhibition of end joining by purified DNA Ligase IV/XRCC4; assay type: biochemical; conditions: for inhibition at 50 µM: Ligase IV; for Inhibition of end joining compared with control: 200 μM, purified Ligase IV/XRCC4; for Concentration from which inhibition of end joining was seen: dose titration with Ligase IV
T1 construct: made in house; host or cells: bacteria
Description: The compounds of Formula I were evaluated for their specific inhibition activity towards enzyme DNA Ligase IV. DNA Ligase IV/XRCC4 was purified from bacteria using Ni-NTA column (FIG. 2A), and used for evaluation of inhibition of end joining of the compounds (01-41) at 200 μM (FIGS. 2B, C and D). The compounds were incubated with purified Ligase IV/XRCC4 in suitable NHEJ buffer at 25° C. for 30 min, followed by addition of radiolabeled DNA, and further incubation for 1 h at 25° C. Products were purified using phenol: chloroform and run on denaturing PAGE.
Effects of these compounds on NHEJ and Ligase IV mediated joining were evaluated (FIG. 4A-K). The reactions were terminated by EDTA (10 mM), products were purified using phenol/chloroform, precipitated with chilled ethanol and glycogen, and resolved on 8% denaturing PAGE. The gel was dried, exposed, and signal was detected using phosphor Imager FLA9000 (Fuji, Japan), and quantified in MultiGauge software expressed as Photo Stimulated Luminescence Units (PSLU). Inhibition of end joining was reported at 200 μM and 100 μM, respectively for SCR116 and SCR132 (FIGS. 4A, B, C and D), with >50% inhibition at 200 and 100 μM concentrations, respectively. […] FIG. 4K depict the purification profile of Ligase IV and XRCC4. Further FIGS. 4L-M represent inhibition of end joining catalysed by (FIG. 4L) purified Ligase III/XRCCI in presence of SCR116 and SCR132 (50, 100, 200, 500, 1000 μM) and (FIG. 4M) by purified Ligase I in presence of increasing concentrations of SCR116 and SCR132 (10, 50, 100, 200, 500, 1000 μM).

U118 = experiment: Cytotoxicity in U118; assay type: cell-based; conditions: Table 2; read-out: IC50 in cancer cell lines, U118
Description: Ligase IV specificity of the compounds of the present invention inside the cells were also determined using Ligase IV knock out (KO) cell line N114 compared to the wild type Nalm6 (Table 2, FIGS. 5C, D, E and F). […] Table 1 showing IC50 of SCR7 derivatives in cancer cell lines Nalm6 and HeLa. IC50 was calculated using GraphPad Prism software from the percentage of viable cells following treatment with the compounds at 48 h. Table 2 showing IC50 of SCR116 and SCR132 in a panel of 16 cancer cell lines.

[1] = test system: V(D)J recombination in Nalm6 (pGG51); experiment: V(D)J recombination in Nalm6 using pGG51; assay type: cell-based; conditions: for Fold reduction in recombination efficiency: vs vehicle control
Description: Evaluation of efficiency of V(D)J recombination following treatment with SCR116 and SCR132 was carried out as depicted in FIGS. 6(A-C). Tables 4 and 5 summarize the effect of SCR116 (1 and 2 μM) and SCR132 (0.5 and 1 μM) on V(D)J recombination in Nalm6 using pGG49 and pGG51, respectively.

53BP1 foci in N114 = 53BP1 foci in N114 cells; assay type: cell-based; conditions: 24 h, SCR116 2, 5 μM, SCR132 1, 2 μM
Description: FIG. 8(A-B) depicts accumulation of DSBs inside cells following treatment with the compounds. A. Representative images for HeLa cells subjected to neutral comet assay following treatment with SCR116 and SCR132 for 24 h. […] FIG. 8C, D are representative images for Nalm6 cells (C) and N114 cells (D) following treatment with SCR116 and SCR132 for 24 h. and FIG. 8E, F are scatter plot depicting quantification of percentage of 53BP1 foci treated with SCR116 (2, 5 μM) and SCR132 (1, 2 μM) in Nalm6 and N114.

cancer cells = experiment: Cytotoxicity in combination with radiation or chemotherapeutic agents; assay type: cell-based; conditions: combined with 0.5 and 1 Gy γ-radiation, or 5-FU and etoposide
Description: FIG. 7(A-F) depicts evaluation of generation of double-strand breaks inside cells treated with compounds SCR116 and SCR132 alone or in combination, A. Immunofluorescence with 53BP1 in HeLa cells treated with increasing concentration of SCR116 (2 and 5 μM) and SCR132 (1 and 2 μM). Nucleus is stained in red using propidium iodide, while green signal represents 53BP1 foci (FITC). B. Quantification of 53BP1 foci inside HeLa cells treated with SCR116 and SCR132 for 24 h, as denoted using scatter plot. Significance was calculated using ANOVA in GraphPad Prism software (ns, not significant; *p<0.05, **p<0.005, ***p<0.0001). C-D. Bar graphs showing percentage of viable cells following treatment with the compounds alone, or in presence of γ-radiation (0.5 Gy) at 24 (C) and 48 h (D). 2 and 4 μM SCR116, and 1 and 2 μM SCR132 were used. E. Bar graph showing percentage of viable cells following treatment with SCR116 (0.375 μM) or SCR132 (0.125 μM) alone, or in presence of 0.25 μM etoposide at 48 h. F. Bar graph showing percentage of viable cells following treatment with SCR116 (0.375 μM) or SCR132 (0.125 μM) alone, or in presence of 0.375 μM 5-FU at 48 h, in accordance with an implementation of the present disclosure.

Molt4 derived xenograft = experiment: Mouse xenograft model, Molt4; assay type: in vivo; conditions: for Tumor volume: alternate days; for Survival: tumor control animals died by day 18
Description: Effect of the compounds was further evaluated in mouse xenograft model generated using Ligase IV high human leukemic cell line, Molt4. Oral doses of SCR116 and SCR132 at 10 mg/kg and 15 mg/kg respectively were administered on alternate days.

[2] = 10 days dose ranging toxicity study; assay type: in vivo, Swiss albino mice; conditions: for Hemoglobin, MCHC, total leukocyte count and platelets: after 10 days of dose-ranging study; for Body weight: oral 80, 160 and 320 mg/kg b.wt., male and female, days 1, 8, 15, 22
Description: FIG. 12 depicts 10 days dose ranging toxicity studies of SCR116 and SCR132 (A) Body weight analyses of mice on 1, 8, 15 and 22 days after oral administration of low, medium and high concentrations of SCR116 and SCR132 (80, 160 and 320 mg/kg b.wt. respectively) in male. Mice treated with methyl cellulose served as vehicle control; and (B) Body weight analyses of mice on 1, 8, 15 and 22 days after oral administration of SCR116 and SCR132 (80, 160 and 320 mg/kg b.wt. respectively) in female.
FIG. 13 depicts the blood parameters analysis of Swiss albino mice after 10 days of dose-ranging study after treating with SCR116 and SCR132. A. RBC (n=3). B. Hemoglobin (n=3). C. MCHC (n=3). D. Total leukocyte count (n=3). E. Platelet count (n=3) (ns: not significant, *p<0.05: **p<0.005).

T1 sequence (P49917 whole entry): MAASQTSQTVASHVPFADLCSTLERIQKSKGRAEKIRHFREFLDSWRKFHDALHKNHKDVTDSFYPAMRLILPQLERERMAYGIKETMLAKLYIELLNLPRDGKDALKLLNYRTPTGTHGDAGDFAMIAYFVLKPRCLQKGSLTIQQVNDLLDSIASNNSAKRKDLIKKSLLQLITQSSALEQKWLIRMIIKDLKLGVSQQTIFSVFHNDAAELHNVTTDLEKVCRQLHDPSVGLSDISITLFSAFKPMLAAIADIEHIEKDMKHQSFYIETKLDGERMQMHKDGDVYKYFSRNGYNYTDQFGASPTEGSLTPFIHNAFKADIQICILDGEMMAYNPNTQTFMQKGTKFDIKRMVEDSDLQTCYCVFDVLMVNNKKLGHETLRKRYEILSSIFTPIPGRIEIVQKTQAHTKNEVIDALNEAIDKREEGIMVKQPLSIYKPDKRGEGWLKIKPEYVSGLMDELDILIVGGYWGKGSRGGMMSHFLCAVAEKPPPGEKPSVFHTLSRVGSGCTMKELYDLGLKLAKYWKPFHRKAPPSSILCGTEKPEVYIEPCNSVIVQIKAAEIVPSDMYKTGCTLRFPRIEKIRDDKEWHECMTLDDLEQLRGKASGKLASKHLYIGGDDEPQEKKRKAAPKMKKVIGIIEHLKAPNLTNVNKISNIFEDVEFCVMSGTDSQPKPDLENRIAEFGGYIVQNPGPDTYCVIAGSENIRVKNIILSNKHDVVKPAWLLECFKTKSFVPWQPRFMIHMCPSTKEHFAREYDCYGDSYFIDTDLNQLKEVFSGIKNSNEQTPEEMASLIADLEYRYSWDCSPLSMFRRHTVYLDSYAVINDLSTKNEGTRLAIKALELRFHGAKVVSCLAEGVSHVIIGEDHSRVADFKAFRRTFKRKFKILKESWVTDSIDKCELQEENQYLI
T1 sequence (Q13426 whole entry partner): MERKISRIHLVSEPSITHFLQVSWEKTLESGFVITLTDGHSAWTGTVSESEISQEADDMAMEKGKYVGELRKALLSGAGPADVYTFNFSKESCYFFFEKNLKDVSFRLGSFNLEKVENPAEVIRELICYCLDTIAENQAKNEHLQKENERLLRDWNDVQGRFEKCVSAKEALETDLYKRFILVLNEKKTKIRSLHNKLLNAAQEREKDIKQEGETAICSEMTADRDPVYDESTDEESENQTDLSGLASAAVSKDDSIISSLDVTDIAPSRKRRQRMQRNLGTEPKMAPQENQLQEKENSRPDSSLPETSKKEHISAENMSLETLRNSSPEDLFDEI

Compound | inhibition at 50 µM (DNA Ligase IV/XRCC4) [%] | Inhibition of end joining compared with control (DNA Ligase IV/XRCC4) | Concentration from which inhibition of end joining was seen (DNA Ligase IV/XRCC4) [µM] | IC50 (U118) [µM] | Recombination efficiency (CA/A) ×100 ([1]; 1 μM) | Fold reduction in recombination efficiency ([1]; 1 μM, listed as SCR116) | Recombination efficiency (CA/A) ×100 ([1]; 2 μM) | Fold reduction in recombination efficiency ([1]; 2 μM, listed as SCR116) | 53BP1 foci (53BP1 foci in N114) | Cytotoxicity in combination (cancer cells) | Tumor volume (Molt4 derived xenograft; oral 10 mg/kg) | Survival (Molt4 derived xenograft; oral 10 mg/kg) | Hemoglobin, MCHC, total leukocyte count and platelets [2] | RBC count ([2]; low doses, values still within the normal range) | Body weight [2] | Recombination efficiency (CA/A) ×100 ([1]; 0.5 μM) | Fold reduction in recombination efficiency ([1]; 0.5 μM, listed as SCR132) | Fold reduction in recombination efficiency ([1]; 1 μM, listed as SCR132) | Tumor volume (Molt4 derived xenograft; oral 15 mg/kg) | Survival (Molt4 derived xenograft; oral 15 mg/kg)
Nc1nc(S)nc(O)c1/N=C/c1ccc([N+](=O)[O-])s1 [Compound 16, (E)-6-amino-2-mercapto-5-(((5-nitrothiophen-2-yl)methylene)amino)pyrimidin-4-ol] | > 50 | significant inhibition of end joining | 5 | 5.6 | 0.030 | 9 fold and 9.0 fold | 0.005 | 54 fold and 54.0 fold | no significant increase in the number of 53BP1 foci | Increased cytotoxicity | effectively reduced the tumor volume | survived the entire experimental period | no significant difference in hemoglobin, MCHC, total leukocyte count and platelets | significant difference in RBC count | no significant change in body weight | – | – | – | – | –
Nc1nc(S)nc(O)c1/N=C/c1sc(Cl)nc1Cl [Compound 32, (E)-6-amino-5-(((2,4-dichlorothiazol-5-yl)methylene)amino)-2-mercaptopyrimidin-4-ol] | > 50 | significant inhibition of end joining | 10 | 4.1 | 0.003 | – | – | – | no significant increase in the number of 53BP1 foci | Increased cytotoxicity | – | – | no significant difference in hemoglobin, MCHC, total leukocyte count and platelets | – | no significant change in body weight | 0.006 | 50 fold and 50.0 fold | 106 fold and 106.6 fold | effectively reduced the tumor volume | survived the entire experimental period
